Measured values published in US20080286254A1, “Composition comprising licorice polyphenol” (Kaneka Corporation, priority 2007, published 2008).

Test system: 3T3-L1 cells
Assay: Lipid decomposition (glycerol secretion) in in vitro obese model of differentiated 3T3-L1 adipocytes
Assay type: cell-based
Conditions: 24 hr
Protocol: As adipocyte precursor cells, 3T3-L1 cells (Dainippon Sumitomo Pharmaceuticals Co., Ltd.) were used. The 3T3-L1 cells were cultured in passage medium A (10% bovine serum-added DMEM supplemented with penicillin[…]streptomycin) in a 75 cm^2 flask. The 3T3-L1 cells were plated in a 24 well plate at 20000 cells/well. The next day, the medium was changed to passage medium B (10% fetal calf serum-added high glucose DMEM supplemented with penicillin-streptomycin) and, 48 hr later, the medium was changed to differentiation induction medium. The differentiation induction medium contained passage medium B as a base medium, and dexamethasone, isobutylmethylxanthine, insulin and pioglitazone at a final concentration of 0.5 μM, 500 μM, 8 μg/ml and 2 μM, respectively. Further, 48 hr later, the medium was changed to a differentiation promoting medium. The differentiation promoting medium contained passage medium B as a base medium, and insulin and pioglitazone at a final concentration of 8 μg/ml and 2 μM, respectively. 48 hr later, the medium was changed to passage medium B. Thereafter, the medium was changed to passage medium B every other day. 7 to 10 days later, differentiation of 3T3-L1 cells into mature adipocyte cells were confirmed with a phase contrast microscope, and the cells were subjected to the following test.
After removing passage medium B by an aspirator, the cells were washed with KRB-HEPES (128 mM NaCl, 10 mM NaH2PO4, 4.7 mM KCl, 1.25 mM CaCl2, 1.25 mM MgCl2, 50 mM HEPES, pH 7.4). The licorice hydrophobic extract (50 mg/ml) of Example 1 and α-lipoic acid (100 mM) as an antioxidant ingredient were each dissolved in DMSO. […] The glycerol concentration was measured using Glycerol Reagent A manufactured by Zen-Bio, and the glycerol amount per protein concentration of the cell was calculated and compared. […]
After removing passage medium B, the cells were washed with KRB-HEPES. […] The glycerol concentration was measured using Glycerol Reagent A manufactured by Zen-Bio, and the glycerol amount per protein concentration of the cell was calculated and compared. […]

## C[N+](C)(C)CC(O)CC(=O)[O-] (stereo not drawn) [carnitine]
Table 3 (Example 11), carnitine 80 μM
  glycerol secretion amount: 43.5 ± 1.9 μM/mg protein

## O=c1c(-c2ccc(O)cc2)coc2cc(O)cc(O)c12 [genistein]
Table 2 (Example 10), genistein 10 μM
  glycerol secretion amount: 111.1 ± 6.3 μM/mg protein

## O=C(O)CCCCC1CCSS1 (stereo not drawn) [α-lipoic acid]
Table 1 (Example 9), α-lipoic acid 30 μM
  glycerol secretion amount: 89.6 ± 4.8 μM/mg protein
